Measurements reported in patent US6486310B1, “Gene encoding the rat dopamine D4 receptor” (Washington University, priority 1993, dated 2002).
Read-outs that look alike come from different tables or passages of the source. Each block holds one compound with its values, some of them ahead of it.

What was measured:
rat D4 receptor = target: T1, rat D4 receptor (Rattus norvegicus, UniProt P30729); test: biochemical
T1 sequence (P30729 1-387): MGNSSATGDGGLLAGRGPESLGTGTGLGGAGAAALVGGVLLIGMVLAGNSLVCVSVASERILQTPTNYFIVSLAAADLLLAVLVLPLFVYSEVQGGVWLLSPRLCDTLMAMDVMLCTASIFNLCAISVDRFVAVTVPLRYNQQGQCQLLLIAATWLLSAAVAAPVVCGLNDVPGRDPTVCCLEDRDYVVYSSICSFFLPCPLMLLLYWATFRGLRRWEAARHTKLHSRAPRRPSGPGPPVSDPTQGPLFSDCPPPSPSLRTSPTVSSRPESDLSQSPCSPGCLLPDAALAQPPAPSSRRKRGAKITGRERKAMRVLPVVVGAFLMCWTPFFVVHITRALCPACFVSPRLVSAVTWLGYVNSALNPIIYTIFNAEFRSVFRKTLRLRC
Excerpt: FIG. 4 is a pharmacological analysis of transfected rat D2444 and D4 receptors and human D3 receptors in CCL1.3 cells. […] FIG. 4B is a graph of [^3H]-spiperone (%) versus log [(+)butaclamol, M]. […] The rat D4 gene, the rat D2444 cDNA and the human D3 cDNA were inserted into the expression vector pcDNA/neo and transfected into CCL1.3 cells. […] Open circles, D4-expressing cells; closed circles, D2444-expressing cells, triangles, D3-expressing cells. Results are shown as mean±SD of percent of specifically bound [^3H]spiperone remaining for an experiment done in triplicate.
Mouse fibroblasts expressing D2A444 and D4 were grown to 70% confluence and then harvested by scraping. After they had been washed twice in PBS, the cell pellets were resuspended in distilled water and ruptured by homogenization with a Brinkman Polytron, at setting 6 for 10 sec. Nuclei were removed by centrifugation for 5 min at 600 g. Membranes were pelleted by centrifugation for 25 min at 50,000 g. The pellets were resuspended in water and frozen at −70° C. until assayed. For receptor binding assays, samples containing 150 μg of membrane protein were aliquoted into glass test tubes. [^3H]-Spiperone (1 nm) and varying concentrations of competing compounds were added in a final volume of 1 ml and a final buffer of 1.5 Mm CaCl2, 5 mM MgCl2, 5 mM KCl, 120 mM NaCl, 50 mM Tris-HCl, pH 7.4 at 20° C. The tubes were incubated for 15 min at 37° C., and the assays were terminated by addition of 5 ml of ice-cold 50 Mm Tris-HCl buffer (pH 6.9), collected onto glass-fiber filters, and washed twice with the same cold buffer in a modified Brandel cell harvester.
Transfected cells were enriched by expansion in medium containing G418. The rat D2 cDNA and the human D3 cDNA were expressed in the same cell line.

[1] = test system: D4 transfected MN9D cells; test: Neurite morphology of D4 transfected MN9D cells; conditions: 1 μM eticlopride co-cultured with 2 μM quinpirole
[2] = test system: D2A444 transfected MN9D cells; test: Neurite morphology of D2A444 transfected MN9D cells; conditions: 1 μM eticlopride co-cultured with 2 μM quinpirole
[3] = test system: D3 transfected MN9D cells; test: Neurite morphology of D3 transfected MN9D cells; conditions: 1 μM eticlopride co-cultured with 2 μM quinpirole
[4] = test system: tyrosine hydroxylase expressing cells from E15 rat mesencephalon; test: Morphology of tyrosine hydroxylase positive cells in primary E15 mesencephalon cultures; assay type: cell-based; conditions: 2 μM quinpirole, 90 hours, high density culture
Excerpt: Cultures were then fixed and dopamine synthesizing cells identified by tyrosine hydroxylase immunoreactivity. […] There are five TH positive cells in the control condition and three TH positive cells in the quinpirole condition.

Ki (rat D4 receptor; Ki (D4)): 22.3 ± 1.9 nM
Ki (rat D4 receptor; apparent Ki, D4 receptor): 27 ± 2.9 nM
Compound: CCc1cc(Cl)c(OC)c(C(=O)NC[C@@H]2CCCN2CC)c1O [eticlopride]
block of the effects of quinpirole stimulation [1]: can be blocked
block of the effects of quinpirole stimulation [2]: can be blocked
block of the effects of quinpirole stimulation [3]: can be blocked

Compound: CCCN1CCC[C@@H]2Cc3n[nH]cc3C[C@H]21 [quinpirole]
morphology of TH positive cells versus control (in words) [4]: larger, have more branch points and much more extensive growth cone elaboration

Ki (rat D4 receptor; read-out: apparent Ki, D4 receptor, transfected CCL1.3 cells, competition of 1 nM [3H]spiperone, mean±SEM): 51.3 ± 17.5 nM
Compound: (+)butaclamol [(+) butaclamal]
